Reference: patent publication US20190183961A1, “GLUTAMINE FOR PRESERVING, IMPROVING OR RESTORING KIDNEY FUNCTION” (Fresenius Kabi Deutschland GmbH, priority 2016, published 2019)
Like-named read-outs stand apart in the source and are kept apart here. Peptide text beside a SMILES is read from it.

Tested on: 5/6 kidney nephrectomised rat model
Assay type: in vivo
Conditions: for effect on incidence/occurrence of chronic progressive nephropathy (in words): continuous i.v. infusion, all doses, versus nephrectomised control; for effect on incidence/occurrence of chronic progressive nephropathy (in words) / incidence of chronic progressive nephropathy (animals affected/animals examined): 9 days; for incidence of chronic progressive nephropathy (animals affected/animals examined): 5/6 nephrectomised rats; for changes in blood levels of biomarkers for kidney and liver injury / treatment-related clinical signs / tolerability of intravenous infusion: rat, in vivo
Description: The effect of L-glutamine (administered in form of L-alanyl-L-glutamine; Dipeptiven™) following daily continuous intravenous infusion was examined in a 5/6 kidney nephrectomised rat model.
L-alanyl-L-glutamine was administered for 9 consecutive days. The effects attributable to L-glutamine (provided in form of alanyl-glutamine; Dipeptiven™) were determined by comparison to an L-alanine infusion.
To prevent protein overdose, the protein content of the animal food was adapted according to the L-alanyl-L-glutamine or L-alanine dose administered intravenously.
The study was conducted according to the following design:
Group 1 and 2 animals (control) received the vehicle (0.9% NaCl).
Groups 5 and 6 received Dipeptiven™ without any dilution, i.e. L-alanyl-L-glutamine in a concentration of 200 mg/ml.
Group 3 and 4 animals received diluted Dipeptiven™, i.e. L-alanyl-L-glutamine in a concentration of 13.33 and 80 mg/ml respectively.
Group 7 and 8 animals received L-alanine in a concentration of 32 and 80 mg/ml respectively.
All animals in groups 1 and 3 to 8 underwent a 5/6 nephrectomy. All animals in group 2 were “sham operated”, meaning the abdomen was opened and closed in the surgery, but the kidneys were not excised and remained in the body.
During the acclimatisation period, a polyurethane catheter was implanted into the posterior vena cava via the left femoral vein. Following implantation, the animals were maintained on continuous infusion with physiological saline prior to the start of treatment.
Morbidity/mortality checks were performed at least twice daily. Clinical observations were performed daily. A full clinical examination was performed daily. Individual body weights were recorded three times a week. Food consumption was measured three times a week for each cage of animals, including one measurement during the acclimatisation period. Clinical laboratory determinations were performed on selected animals on days −1 and on days 1 to 10. Animals were sampled for amino acid determination on days 1, 4, 7 and 10. Animals were fasted before blood sampling performed on day 10.
All animals were killed at the end of the treatment period (day 10) and necropsied. Organ/tissue samples were fixed and preserved at necropsy for all animals. Selected organs/tissues from all animals were examined histopathologically. In addition, selected organs/tissues from all animals were used for amino acid determination.

[1] = 3.0 g/kg/day continuous i.v. infusion, 9% protein in diet
[2] = groups 4 and 8: 3.0 g/kg/day, 9% protein in diet, control 60%

SMILES | effect on incidence/occurrence of chronic progressive nephropathy (in words) | occurrence of chronic progressive nephropathy, percent of animals (group 6: 7.5 g/kg/day, 12% protein in diet (amino acid overload)) [%] | incidence of chronic progressive nephropathy (animals affected/animals examined) (0.5 g/kg/day continuous i.v. infusion, 12% protein in diet) | incidence of chronic progressive nephropathy (animals affected/animals examined) [1] | incidence of chronic progressive nephropathy (animals affected/animals examined) (7.5 g/kg/day continuous i.v. infusion, 4.5% protein in diet) | incidence of chronic progressive nephropathy (animals affected/animals examined) (7.5 g/kg/day continuous i.v. infusion, 12% protein in diet (amino acid overload)) | incidence of chronic progressive nephropathy (animals affected/animals examined) (7.5 g/kg/day continuous i.v. infusion, 12% protein in diet (amino acid overload), listed as L-alanyl-L-glutamine) | occurrence of chronic progressive nephropathy, percent of animals (group 3: 0.5 g/kg/day, 12% protein in diet, control 60%) [%] | occurrence of chronic progressive nephropathy, percent of animals (group 5: 7.5 g/kg/day, 4.5% protein in diet, control 60%) [%] | occurrence of chronic progressive nephropathy, percent of animals [2] [%] | changes in blood levels of biomarkers for kidney and liver injury | treatment-related clinical signs | tolerability of intravenous infusion | incidence of chronic progressive nephropathy (animals affected/animals examined) (1.2 g/kg/day continuous i.v. infusion, 10.8% protein in diet)
NC(=O)CC[C@H](N)C(=O)O [L-glutamine] | reduces the occurrence of chronic progressive nephropathy in a dose-dependent manner | 20 |  |  |  |  |  |  |  |  |  |  |  | 
C[C@H](N)C(=O)N[C@@H](CCC(N)=O)C(=O)O [Ala-Gln, L-alanyl-L-glutamine] (H-Ala-Gln-OH) | decreased incidence of chronic progressive nephropathy |  | 2/5 | 0/5 | 0/5 | 1/5 | 2/5 | 40 | 0 | 0 | No treatment-related | No treatment-related clinical signs | overall well tolerated | 
C[C@H](N)C(=O)O [Ala, L-alanine] | did not |  |  | 3/5 |  |  |  |  |  | 60 | No treatment-related | No treatment-related clinical signs | overall well tolerated | 4/5
